Source: patent publication US11426412B2, “Imidazo-pyridine compounds as PAD inhibitors” (JUBILANT EPIPAD LLC, priority 2017, dated 2022)
Structures can show the parent of a compound that is named as a salt. Where two headings read alike, the source gives them in different places.

Biological target: PAD4 (Homo sapiens (Human), UniProt Q9UM07)
Experiment: Ammonia release biochemical assay (citrullination)
[1] = read-out: NH3 release biochemical assay PAD4 IC50
[2] = Table 1, class A, read-out: IC50 value, ammonia release biochemical assay

Chain of PAD4 (Q9UM07 whole entry): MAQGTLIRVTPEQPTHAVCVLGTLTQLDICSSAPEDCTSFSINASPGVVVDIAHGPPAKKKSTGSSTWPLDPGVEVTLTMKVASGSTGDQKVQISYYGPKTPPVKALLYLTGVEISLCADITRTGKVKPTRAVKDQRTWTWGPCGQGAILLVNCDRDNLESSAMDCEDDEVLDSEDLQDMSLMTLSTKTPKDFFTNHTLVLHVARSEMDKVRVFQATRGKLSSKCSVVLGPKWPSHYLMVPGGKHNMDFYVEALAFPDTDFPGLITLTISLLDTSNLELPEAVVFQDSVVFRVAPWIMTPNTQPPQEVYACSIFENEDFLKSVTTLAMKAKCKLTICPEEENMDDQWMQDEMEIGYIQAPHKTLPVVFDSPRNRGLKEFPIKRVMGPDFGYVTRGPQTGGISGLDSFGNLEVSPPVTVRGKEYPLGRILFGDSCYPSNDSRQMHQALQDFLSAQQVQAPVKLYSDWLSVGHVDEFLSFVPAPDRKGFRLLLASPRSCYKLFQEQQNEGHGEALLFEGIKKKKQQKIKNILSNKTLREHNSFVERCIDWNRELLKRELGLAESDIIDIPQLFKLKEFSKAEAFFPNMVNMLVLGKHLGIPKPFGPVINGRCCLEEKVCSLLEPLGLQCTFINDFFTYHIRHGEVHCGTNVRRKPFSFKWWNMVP
Experimental: Ammonia Release Biochemical Assay
Citrullination assay was detected via ammonia release. […] The reaction was stopped after 60 min by addition of stop/detection buffer containing 50 mM EDTA, 2.6 mM of o-phthaladehyde and 2.6 mM DTT.

| SMILES | IC50 [1] [nM] | IC50 [2] [nM] |
| --- | --- | --- |
| Cc1c(-c2cc3ccc(F)cc3n2CC(C)C)nc2cc(C(=O)N3CCC[C@@H](N)C3)ccn12 [Compound 73, (R)-(3-aminopiperidin-1-yl)(2-(6-fluoro-1-isobutyl-1H-indol-2-yl)-3-methylimidazo[1,2-a]pyridin-7-yl)methanone] | < 1000 | – |
| Cc1c(-c2cc3cc(F)ccc3n2Cc2ccncc2)nc2cc(C(=O)N3CCC[C@@H](N)C3)ccn12 [Compound 74, (R)-(3-aminopiperidin-1-yl)(2-(5-fluoro-1-(pyridin-4-ylmethyl)-1H-indol-2-yl)-3-methylimidazo[1,2-a]pyridin-7-yl)methanone] | < 1000 | – |
| COc1ccc(Cn2c(-c3nc4cc(C(=O)N5CCC[C@@H](N)C5)ccn4c3C)cc3cc(F)ccc32)cc1 [Compound 75, (R)-(3-aminopiperidin-1-yl)(2-(5-fluoro-1-(4-methoxybenzyl)-1H-indol-2-yl)-3-methylimidazo[1,2-a]pyridin-7-yl)methanone] | < 1000 | – |
| Cc1c(-c2cc3cc(F)ccc3n2Cc2ccc(F)cc2)nc2cc(C(=O)N3CCC[C@@H](N)C3)ccn12 [Compound 76, (R)-(3-aminopiperidin-1-yl)(2-(5-fluoro-1-(4-fluorobenzyl)-1H-indol-2-yl)-3-methylimidazo[1,2-a]pyridin-7-yl)methanone] | < 1000 | – |
| Cc1c(-c2cc3cccc(Cl)c3n2Cc2ccc(F)cc2)nc2cc(C(=O)N3CCC[C@@H](N)C3)ccn12 [Compound 77, (R)-(3-aminopiperidin-1-yl)(2-(7-chloro-1-(4-fluorobenzyl)-1H-indol-2-yl)-3-methylimidazo[1,2-a]pyridin-7-yl)methanone] | < 1000 | – |
| Cc1c(-c2cc3ccccc3n2CC(F)F)nc2cc(C(=O)N3CCC[C@@H](N)C3)ccn12 [Compound 78, (R)-(3-aminopiperidin-1-yl)(2-(1-(2,2-difluoroethyl)-1H-indol-2-yl)-3-methylimidazo[1,2-a]pyridin-7-yl)methanone Trifluoroacetic Acid Salt] | < 1000 | – |
| Cc1c(-c2cc3ccccc3n2Cc2ccc(F)cn2)nc2cc(C(=O)N3CCC[C@@H](N)C3)ccn12 [Compound 79, (R)-(3-aminopiperidin-1-yl)(2-(1-((5-fluoropyridin-2-yl)methyl)-1H-indol-2-yl)-3-methylimidazo[1,2-a]pyridin-7-yl)methanone] | < 1000 | – |
| COc1ccc2cc(-c3nc4cc(C(=O)N5CCC[C@@H](N)C5)ccn4c3C)n(Cc3ccc(F)cc3)c2c1 [Compound 80, (R)-(3-aminopiperidin-1-yl)(2-(1-(4-fluorobenzyl)-6-methoxy-1H-indol-2-yl)-3-methylimidazo[1,2-a]pyridin-7-yl)methanone] | < 1000 | – |
| COc1ccc2cc(-c3nc4cc(C(=O)N5CCC[C@@H](N)C5)ccn4c3C)n(CC(C)C)c2c1 [Compound 82, (R)-(3-aminopiperidin-1-yl)(2-(1-isobutyl-6-methoxy-1H-indol-2-yl)-3-methylimidazo[1,2-a]pyridin-7-yl)methanone] | < 1000 | ≤ 1000 |
| COc1ccc2cc(-c3nc4cc(C(=O)N5CCC[C@@H](N)C5)ccn4c3C)n(CC(F)F)c2c1 [Compound 83, (R)-(3-aminopiperidin-1-yl)(2-(1-(2,2-difluoroethyl)-6-methoxy-1H-indol-2-yl)-3-methylimidazo[1,2-a]pyridin-7-yl)methanone] | < 1000 | ≤ 1000 |
| COc1cc(Cn2c(-c3nc4cc(C(=O)N5CCC[C@@H](N)C5)ccn4c3C)cc3ccccc32)ccc1F [Compound 85, (R)-(3-aminopiperidin-1-yl)(2-(1-(4-fluoro-3-methoxybenzyl)-1H-indol-2-yl)-3-methylimidazo[1,2-a]pyridin-7-yl)methanone] | < 1000 | ≤ 1000 |
